Data: patent publication US20240018123A1, “COMPOUND FOR INHIBITING OR DISINTEGRATING ANDROGEN RECEPTOR, AND PHARMACEUTICAL USE THEREOF” (KOREA RESEARCH INSTITUTE OF CHEMICAL TECHNOLOGY, priority 2020, published 2024)
Read-outs that look alike come from different tables or passages of the source.

How the values were obtained:
[1] = target: T1, Androgen receptor (AR) (Homo sapiens, UniProt P10275, T878A); test: Assessment of AR proteolytic activity (Western blotting of LNCap cell lysates); format: cell-based; details: 24 hours of treatment, Western blotting quantified with Image J; for remaining activity at 1 µM: read-out: Degradation (1 μM treated in LNCaP, % AR remaining)
T1 construct: 5.5×10^5 LNCap cells were injected into each well of a 6-well plate; endogenous in cells; host or cells: LNCaP
T1 sequence (P10275 1-920 T878A): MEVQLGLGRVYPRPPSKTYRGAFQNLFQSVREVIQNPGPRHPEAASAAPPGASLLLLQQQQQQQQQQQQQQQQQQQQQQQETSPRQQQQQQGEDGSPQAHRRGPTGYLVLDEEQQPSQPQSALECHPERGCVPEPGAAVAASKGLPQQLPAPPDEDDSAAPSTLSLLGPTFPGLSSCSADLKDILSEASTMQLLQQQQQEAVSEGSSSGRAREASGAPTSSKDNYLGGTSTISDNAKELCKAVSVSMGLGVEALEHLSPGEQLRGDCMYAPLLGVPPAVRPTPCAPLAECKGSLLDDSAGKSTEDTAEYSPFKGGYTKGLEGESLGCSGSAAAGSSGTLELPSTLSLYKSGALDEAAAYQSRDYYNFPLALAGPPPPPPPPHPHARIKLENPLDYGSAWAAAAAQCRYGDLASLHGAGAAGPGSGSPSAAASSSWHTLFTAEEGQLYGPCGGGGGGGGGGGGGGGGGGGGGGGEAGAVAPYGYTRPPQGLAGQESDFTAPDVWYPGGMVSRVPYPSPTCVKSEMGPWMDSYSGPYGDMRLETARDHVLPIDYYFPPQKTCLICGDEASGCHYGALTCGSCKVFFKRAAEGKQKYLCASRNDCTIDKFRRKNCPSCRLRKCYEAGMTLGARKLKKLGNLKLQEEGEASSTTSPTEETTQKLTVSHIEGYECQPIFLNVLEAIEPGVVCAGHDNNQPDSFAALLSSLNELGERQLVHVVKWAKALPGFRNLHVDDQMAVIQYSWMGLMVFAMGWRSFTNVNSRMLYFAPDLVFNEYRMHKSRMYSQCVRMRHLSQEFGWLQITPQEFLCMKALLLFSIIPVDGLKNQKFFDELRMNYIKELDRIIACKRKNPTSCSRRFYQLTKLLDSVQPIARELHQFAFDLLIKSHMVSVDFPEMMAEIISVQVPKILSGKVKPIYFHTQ
How it was run: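 AR degradation read by Western blot densitometry on RIPA lysates (pH 7.5, protease inhibitor cocktail). Lysates came from LNCap cells, 5.5×10^5 per well, exposed to compound for 24 hours.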

[2] = test system: VCaP cells; test: Cytotoxicity assessment (Cell-titer-glo cell viability), VCaP
[3] = Homo sapiens, VCaP, 144 h, read-out: VCaP (CC50, μM)
[4] = read-out: VCaP (CC50), VCaP cells, 6 days of treatment, Cell-titer-glo, vs DMSO

| SMILES | remaining activity at 1 µM [1] [%] | CC50 [2, 3] [µM] | Degradation (1 μM treated in LNCaP, % AR remaining) [1] [%] | CC50 [2, 4] [µM] |
| --- | --- | --- | --- | --- |
| CC1(C)[C@H](NC(=O)c2ccc(N3CCC(CN4CCN(C(=O)C5CCN(c6ccc7nnn(C8CCC(=O)NC8=O)c(=O)c7c6)CC5)CC4)CC3)cc2)C(C)(C)[C@H]1Oc1ccc(C#N)c(Cl)c1 (some centres unmarked) [Example 49, N-((1r,3r)-3-(3-chloro-4-cyanophenoxy)-2,2,4,4-tetramethylcyclobutyl)-4-(4-((4-(1-(3-(2,6-dioxopiperidin-3-yl)-4-oxo-3,4-dihydrobenzo[d][1,2,3]triazin-6-yl)piperidine-4-carbonyl)piperazin-1-yl)methyl)piperidin-1-yl)benzamide] | 8.6 | 0.0678 | – | – |
| CC1(C)C(NC(=O)c2ccc(N3CCN(CCCOC4CCN(C(=O)CNc5ccc6nnn(C7CCC(=O)NC7=O)c(=O)c6c5)CC4)CC3)cc2)C(C)(C)C1Oc1ccc(C#N)c(Cl)c1 (centres unmarked) [Example 37, N-((1r,3r)-3-(3-chloro-4-cyanophenoxy)-2,2,4,4-tetramethylcyclobutyl)-4-(4-(3-((1-((3-(2,6-dioxopiperidin-3-yl)-4-oxo-3,4-dihydrobenzo[d][1,2,3]triazin-6-yl)glycyl)piperidin-4-yl)oxy)propyl)piperazin-1-yl)benzamide] | – | – | 14.9 | 0.0291 |
| CC1(C)[C@H](NC(=O)c2ccc(C3CCN(CC4CCN(C(=O)C5CCN(c6ccc7nnn(C8CCC(=O)NC8=O)c(=O)c7c6)CC5)CC4)CC3)cc2)C(C)(C)[C@H]1Oc1ccc(C#N)c(Cl)c1 (some centres unmarked) [Example 52, N-((1r,3r)-3-(3-chloro-4-cyanophenoxy)-2,2,4,4-tetramethylcyclobutyl)-4-(1-((1-(1-(3-(2,6-dioxopiperidin-3-yl)-4-oxo-3,4-dihydrobenzo[d][1,2,3]triazin-6-yl)piperidine-4-carbonyl)piperidin-4-yl)methyl)piperidin-4-yl)benzamide] | – | – | 32.2 | 0.0594 |
| CC1(C)C(NC(=O)c2ccc(N3CCN(CCCC4CCN(C(=O)C5CCN(c6ccc7nnn(C8CCC(=O)NC8=O)c(=O)c7c6)CC5)CC4)CC3)cc2)C(C)(C)C1Oc1ccc(C#N)c(Cl)c1 (centres unmarked) [Example 46, N-((1r,3r)-3-(3-chloro-4-cyanophenoxy)-2,2,4,4-tetramethylcyclobutyl)-4-(4-(3-(1-(1-(3-(2,6-dioxopiperidin-3-yl)-4-oxo-3,4-dihydrobenzo[d][1,2,3]triazin-6-yl)piperidine-4-carbonyl)piperidin-4-yl)propyl)piperazin-1-yl)benzamide] | – | – | 15.6 | 0.0522 |
| CC1(C)[C@H](NC(=O)c2ccc(C3CCN(CC4CCN(c5ccc6nnn(C7CCC(=O)NC7=O)c(=O)c6c5)CC4)CC3)cc2)C(C)(C)[C@H]1Oc1ccc(C#N)c(Cl)c1 (some centres unmarked) [Example 50, N-((1r,3r)-3-(3-chloro-4-cyanophenoxy)-2,2,4,4-tetramethylcyclobutyl)-4-(1-((1-(3-(2,6-dioxopiperidin-3-yl)-4-oxo-3,4-dihydrobenzo[d][1,2,3]triazin-6-yl)piperidin-4-yl)methyl)piperidin-4-yl)benzamide] | 6.8 | 0.223 | – | – |
| CC1(C)C(NC(=O)c2cnc(N3CCN(CC4CCN(c5ccc6nnn(C7CCC(=O)NC7=O)c(=O)c6c5)CC4)CC3)cn2)C(C)(C)C1Oc1ccc(C#N)c(Cl)c1 (centres unmarked) [Example 79, N-((1r,3r)-3-(3-chloro-4-cyanophenoxy)-2,2,4,4-tetramethylcyclobutyl)-5-(4-((1-(3-(2,6-dioxopiperidin-3-yl)-4-oxo-3,4-dihydrobenzo[d][1,2,3]triazin-6-yl)piperidin-4-yl)methyl)piperazin-1-yl)pyrazine-2-carboxamide] | – | – | 45 | 0.2 |
| CC1(C)C(NC(=O)c2ccc(N3CCN(CC4(F)CCN(C(=O)C5CCN(c6ccc7nnn(C8CCC(=O)NC8=O)c(=O)c7c6)CC5)CC4)CC3)cc2)C(C)(C)C1Oc1ccc(C#N)c(Cl)c1 (centres unmarked) [Example 62, N-((1r,3r)-3-(3-chloro-4-cyanophenoxy)-2,2,4,4-tetramethylcyclobutyl)-4-(4-((1-(1-(3-(2,6-dioxopiperidin-3-yl)-4-oxo-3,4-dihydrobenzo[d][1,2,3]triazin-6-yl)piperidine-4-carbonyl)-4-fluoropiperidin-4-yl)methyl)piperazin-1-yl)benzamide] | – | – | 15 | 0.0345 |
| CC1(C)C(NC(=O)c2ccc(N3CCN(CC4CCN(C(=O)C5CN(c6ccc7nnn(C8CCC(=O)NC8=O)c(=O)c7c6)C5)CC4)CC3)nc2)C(C)(C)C1Oc1ccc(C#N)c(Cl)c1 (centres unmarked) [Example 80, N-((1r,3r)-3-(3-chloro-4-cyanophenoxy)-2,2,4,4-tetramethylcyclobutyl)-6-(4-((1-(1-(3-(2,6-dioxopiperidin-3-yl)-4-oxo-3,4-dihydrobenzo[d][1,2,3]triazin-6-yl)azetidine-3-carbonyl)piperidin-4-yl)methyl)piperazin-1-yl)nicotinamide] | – | – | 56 | 0.01 |
| CC1(C)C(NC(=O)c2ccc(N3CCN(CC4CCN(c5ccc6nnn(C7CCC(=O)NC7=O)c(=O)c6c5)CC4)CC3)nc2)C(C)(C)C1Oc1ccc(C#N)c(Cl)c1 (centres unmarked) [Example 78, N-((1r,3r)-3-(3-chloro-4-cyanophenoxy)-2,2,4,4-tetramethylcyclobutyl)-6-(4-((1-(3-(2,6-dioxopiperidin-3-yl)-4-oxo-3,4-dihydrobenzo[d][1,2,3]triazin-6-yl)piperidin-4-yl)methyl)piperazin-1-yl)nicotinamide] | – | – | 24 | 0.00768 |
| CC1(C)C(NC(=O)c2ccc(N3CCN(CCCOC4CCN(C(=O)C5CCN(c6ccc7nnn(C8CCC(=O)NC8=O)c(=O)c7c6)CC5)CC4)CC3)cc2)C(C)(C)C1Oc1ccc(C#N)c(Cl)c1 (centres unmarked) [Example 35, N-((1r,3r)-3-(3-chloro-4-cyanophenoxy)-2,2,4,4-tetramethylcyclobutyl)-4-(4-(3-((1-(1-(3-(2,6-dioxopiperidin-3-yl)-4-oxo-3,4-dihydrobenzo[d][1,2,3]triazin-6-yl)piperidine-4-carbonyl)piperidin-4-yl)oxy)propyl)piperazin-1-yl)benzamide] | – | – | 6.4 | 0.0525 |
| CC1(C)C(NC(=O)c2ccc(N3CCN(CC4(O)CCN(C(=O)C5CCN(c6ccc7nnn(C8CCC(=O)NC8=O)c(=O)c7c6)CC5)CC4)CC3)cc2)C(C)(C)C1Oc1ccc(C#N)c(Cl)c1 (centres unmarked) [Example 55, N-((1r,3r)-3-(3-chloro-4-cyanophenoxy)-2,2,4,4-tetramethylcyclobutyl)-4-(4-((1-(1-(3-(2,6-dioxopiperidin-3-yl)-4-oxo-3,4-dihydrobenzo[d][1,2,3]triazin-6-yl)piperidine-4-carbonyl)-4-hydroxypiperidin-4-yl)methyl)piperazin-1-yl)benzamide] | – | – | 8.6 | 0.0365 |
| CC1(C)C(NC(=O)c2ccc(-c3cnn(C4CCN(CC5CCN(C(=O)C6CCN(c7ccc8nnn(C9CCC(=O)NC9=O)c(=O)c8c7)CC6)CC5)CC4)c3)cc2)C(C)(C)C1Oc1ccc(C#N)c(Cl)c1 (centres unmarked) [Example 82, N-((1r,3r)-3-(3-chloro-4-cyanophenoxy)-2,2,4,4-tetramethylcyclobutyl)-4-(1-(1-((1-(1-(3-(2,6-dioxopiperidin-3-yl)-4-oxo-3,4-dihydrobenzo[d][1,2,3]triazin-6-yl)piperidine-4-carbonyl)piperidin-4-yl)methyl)piperidin-4-yl)-1H-pyrazol-4-yl)benzamide] | – | – | 27 | 0.0144 |
| CC1(C)C(NC(=O)c2ccc(N3CC4CC3CN4C3CC4(CCN(C(=O)C5CCN(c6ccc7nnn(C8CCC(=O)NC8=O)c(=O)c7c6)CC5)CC4)C3)cc2)C(C)(C)C1Oc1ccc(C#N)c(Cl)c1 (centres unmarked) [Example 71, N-((1r,3r)-3-(3-chloro-4-cyanophenoxy)-2,2,4,4-tetramethylcyclobutyl)-4-(5-(7-(1-(3-(2,6-dioxopiperidin-3-yl)-4-oxo-3,4-dihydrobenzo[d][1,2,3]triazin-6-yl)piperidine-4-carbonyl)-7-azaspiro[3.5]nonan-2-yl)-2,5-diazabicyclo[2.2.1]heptan-2-yl)benzamide] | – | – | 37 | 0.0705 |
